Where “and” joins values, the source holds several entries; their conditions need not be identical. Equal values may be shown once. Read-outs that look alike come from different tables or passages of the source.
Assays:
[1] = test system: primary normal human gingival fibroblasts; experiment: MTT cell viability assay, primary gingival fibroblasts; type: cell-based; conditions: 72 h, read-out: IC50 primary gingival fibroblast
Method: (§1) Human SCC-4, SCC-9, and SCC-25 cells, derived from a human oral tongue SCC (squamous cell carcinoma), were obtained from ATCC (CRL-1624, CRL-1629, and CRL-1628, respectively) and maintained in 1:1 DMEM/F12 (Dulbecco’s modified Eagle’s medium and Ham’s F12 medium; Gibco (Thermo Fisher, Waltham, MA, USA)) supplemented with 10% (v/v) FBS (fetal bovine serum; Invitrogen, Thermo Fisher, Waltham, MA, USA) and 400 ng/mL hydrocortisone (Sigma-Aldrich Corporation, St. Louis, MO, USA). B16-F10 (melanoma; CRL-6475), HCT-116 (colorectal cancer; CCL-247), and HepG2 (liver cancer; HB-8065), in addition to primary normal human gingival fibroblasts obtained from ATCC (PCS-201-018), were maintained in DMEM supplemented with 10% (v/v) of FBS and were used in a maximum of six passages. Cells were grown in a humidified environment containing 5% CO2 at 37 °C. For all biological assays, compounds and shikonin were solubilized in 100% DMSO (all Sigma-Aldrich Corp.) to a final concentration of 10 mM and lapachol in ethanol. The carboplatin control was prepared in water (Fauldcarbo; Libbs Farmacêutica, São Paulo, SP, Brazil) and was used as a standard anticancer compound.
(§2) The viability of OSCC cell lines and primary human fibroblast cells was assessed using the MTT assay as in ref . Briefly, cells were grown in triplicate in 96-well plates (5 × 10^3 cells/well) until confluence. Then, the medium was removed, fresh medium was added, and the cells were returned to the incubator in the presence of different compounds. DMSO at the same concentration was used as a control for 100% cell viability. After 72 h, cells were incubated with 0.5 mg/mL of MTT reagent (3-(4,5-dimethyl-2-thiazolyl)-2,5-diphenyl-2-H-tetrazolium bromide) (Sigma-Aldrich Corporation, Louis, MO, USA) for 3.5 h. Then, the wells containing the cells were washed with PBS heated to 37 °C, the formazan crystals were dissolved in a solvent solution (DMSO/methanol 1:1 v/v), and the absorbance was read at 560 nm using an EPOCH microplate spectrophotometer (BioTek Instruments, Winooski, VT, USA) with the background absorbance at 670 nm subtracted. Control chemotherapeutics (carboplatin and shikonin) were used.
(§3) Data are presented as means ± SD. IC50 values for the MTT assays were obtained by nonlinear regression using the […] 8.4.3.0 program (Intuitive Software for Science, San Diego, CA, USA) from at least three independent experiments. A dose–response curve (inhibitor) vs response using the least-squares method was used to determine the IC50, SD, and R2 of the data. The selectivity index was calculated as SI = IC50 of the compound in normal oral fibroblast cells/IC50 of the same compound for each oral cancer cell line (SCC-4, SCC-9, and SCC-25) and averaged when indicated.

[2] = test system: SCC-9 cells (OSCC cells); experiment: MTT cell viability assay, SCC-9; type: cell-based, human; conditions: for SI (SCC-9): IC50 normal oral fibroblast / IC50 SCC-9
Method: as §1, §2, §3

[3] = test system: SCC-4 cells; experiment: MTT cell viability assay, SCC-4; type: cell-based, human; conditions: for IC50: read-out: IC50 SCC-4
Method: as §1, §2, §3

[4] = test system: SCC-25 cells; experiment: MTT cell viability assay, SCC-25; type: cell-based, human; conditions: for IC50: read-out: IC50 SCC-25
Method: as §1, §2, §3

[5] = test system: OSCC cell lines (SCC-4, SCC-9, and SCC-25); experiment: Average selectivity index over three OSCC cell lines (MTT); type: cell-based, human; conditions: average of SI for SCC-4, SCC-9 and SCC-25 vs normal oral fibroblasts
Method: as §1, §2, §3

[6] = test system: HCT-116 (colorectal cancer); experiment: MTT cytotoxicity/selectivity, HCT-116; type: cell-based; conditions: vs normal oral fibroblasts
Method: as §1
as §2, with “DMSO at the same concentration was used as a control for 100% cell viability. After 72 h, cells were incubated with 0.5 mg/mL of MTT reagent (3-(4,5-dimethyl-2-thiazolyl)-2,5-diphenyl-2-H-tetrazolium bromide) (Sigma-Aldrich Corporation, Louis, MO, USA) for 3.5 h.” left out, “Control chemotherapeutics (carboplatin and shikonin) were used.” left out
(§4) Data are presented as means ± SD. […] The selectivity index was calculated as SI = IC50 of the compound in normal oral fibroblast cells/IC50 of the same compound for each oral cancer cell line (SCC-4, SCC-9, and SCC-25) and averaged when indicated.

[7] = test system: B16-F10 (melanoma); experiment: MTT cytotoxicity/selectivity, B16-F10; type: cell-based; conditions: vs normal oral fibroblasts
Method: as §1
as §2, with “DMSO at the same concentration was used as a control for 100% cell viability. After 72 h, cells were incubated with 0.5 mg/mL of MTT reagent (3-(4,5-dimethyl-2-thiazolyl)-2,5-diphenyl-2-H-tetrazolium bromide) (Sigma-Aldrich Corporation, Louis, MO, USA) for 3.5 h.” left out, “Control chemotherapeutics (carboplatin and shikonin) were used.” left out
as §4

[8] = test system: HepG2 (liver cancer); experiment: MTT cytotoxicity/selectivity, HepG2; type: cell-based; conditions: vs normal oral fibroblasts
Method: as §1
as §2, with “DMSO at the same concentration was used as a control for 100% cell viability. After 72 h, cells were incubated with 0.5 mg/mL of MTT reagent (3-(4,5-dimethyl-2-thiazolyl)-2,5-diphenyl-2-H-tetrazolium bromide) (Sigma-Aldrich Corporation, Louis, MO, USA) for 3.5 h.” left out, “Control chemotherapeutics (carboplatin and shikonin) were used.” left out
as §4

[9] = test system: human erythrocytes; experiment: Hemolysis assay; type: cell-based; conditions: 500 μM; Triton X-100 positive control
Method: To determine the surfactant power of the substances present in biological membranes, a hemolysis test was carried out with human blood approved by the Research Ethics Committee of the Universidade Federal Fluminense (CAAE: 43134721.4.0000.5626). Erythrocytes were collected for centrifugation at 1500 rpm for 15 min, washed with PBS (phosphate-buffered saline) supplemented with 10 mM glucose, and counted in an automatic cell counter (Thermo Fisher, Waltham, MA, USA). […] In total, 10 μL of PBS was used as a negative control, and 10 μL of PBS with 0.1% Triton x 100 was used as a positive control. Data reading was performed with EPOCH (BioTek Instruments, Winooski, VT, USA) at an absorbance of 540 nm, and statistical data were generated using […] Prism 8.4.3.0 program (Intuitive Software for Science, San Diego, CA, USA).

[10] = test system: esophageal squamous carcinoma cells; parameters: method as in PMID 31225674; conditions: inhibits RSK2 and induces intrinsic apoptosis in esophageal squamous carcinoma cells; cited from earlier work
[11] = Homo sapiens, SCC-9, 72 h, MTT, read-out: IC50 SCC-9 oral cancer

Compound	IC50 ([1]; Homo sapiens, Fibroblast, MTT)	IC50 [2, 11]	SI (SCC-9) [2]	average SI [5]	also measured
Cc1ccccc1SC1C2=C(OC(C)(C)C1Sc1ccccc1C)C(=O)c1ccccc1C2=O (centres unmarked) [7b, 2,2-Dimethyl-3,4-bis(o-tolylthio)-3,4-dihydro-2H-benzo[g]chromene-5,10-dione]	50.9 µM	34.8 µM	1.5	–	–
Cc1cccc(SC2C3=C(OC(C)(C)C2Sc2cccc(C)c2)C(=O)c2ccccc2C3=O)c1 (centres unmarked) [7c, 2,2-Dimethyl-3,4-bis(m-tolylthio)-3,4-dihydro-2H-benzo[g]chromene-5,10-dione]	40.8 µM	15.3 µM	2.7	1.8	IC50 ([3]; Homo sapiens, SCC-4, 72 h, MTT): 30.2 µM; IC50 ([4]; Homo sapiens, SCC-25, 72 h, MTT): 31.8 µM
Cc1ccc(SC2C3=C(OC(C)(C)C2Sc2ccc(C)cc2)C(=O)c2ccccc2C3=O)cc1 (centres unmarked) [7d, 2,2-Dimethyl-3,4-bis(p-tolylthio)-3,4-dihydro-2H-benzo[g]chromene-5,10-dione]	60.1 µM	30.9 µM	1.9	–	–
CC1(C)OC2=C(C(=O)c3ccccc3C2=O)C(Sc2ccc(F)cc2)C1Sc1ccc(F)cc1 (centres unmarked) [7f, 3,4-Bis((4-fluorophenyl)thio)-2,2-dimethyl-3,4-dihydro-2H-benzo[g]chromene-5,10-dione]	40 µM	35.3 µM	1.1	–	–
CC1(C)OC2=C(C(=O)c3ccccc3C2=O)C(Sc2ccc(Cl)cc2)C1Sc1ccc(Cl)cc1 (centres unmarked) [7h, 3,4-Bis((4-chlorophenyl)thio)-2,2-dimethyl-3,4-dihydro-2H-benzo[g]chromene-5,10-dione]	43 µM	33.3 µM	1.3	–	–
CC1(C)OC2=C(C(=O)c3ccccc3C2=O)C(Sc2ccc(O)cc2)C1Sc1ccc(O)cc1 (centres unmarked) [7i, 3,4-Bis((4-hydroxyphenyl)thio)-2,2-dimethyl-3,4-dihydro-2H-benzo[g]chromene-5,10-dione]	32.6 µM	17.2 µM	1.9	–	–
N.N.O=C([O-])C1(C(=O)[O-])CCC1.[Pt+2] [Carboplatin, carboplatin, reference compound]	–	–	2.6	3.5	IC50 ([3]; 72 h, MTT): 27.7 µM; selective index (SI) SCC-4 ([3]; vs normal oral fibroblasts): 4.6; selective index (SI) HCT-116 colon cancer [6]: 2.5; selective index (SI) B16-F10 melanoma [7]: 5.5; IC50 ([4]; 72 h, MTT): 38.3 µM; selective index (SI) SCC-25 ([4]; vs normal oral fibroblasts): 3.3; selective index (SI) HepG2 hepatocellular carcinoma [8]: 7.1; % Hemolysis (Mean ± SD) [9]: 1.34 ± 0.10%; IC50 ([1]; MTT): 128 µM; IC50 ([2]; 72 h, MTT, read-out: IC50 SCC-9 oral cancer): 49.8 µM
CC(C)=CC[C@@H](O)C1=CC(=O)c2c(O)ccc(O)c2C1=O [Shikonin, shikonin, reference compound]	–	–	1.0	2.0	IC50 ([3]; Homo sapiens, SCC-4, 72 h): 1.6 µM; IC50 ([4]; Homo sapiens, SCC-25, 72 h): 0.6 µM; IC50 ([1]; Homo sapiens, Fibroblast): 2.2 µM; IC50 ([2]; Homo sapiens, SCC-9, 72 h, read-out: IC50 SCC-9 oral cancer, 72 h, MTT): 2.1 µM
CC(C)=CCC1=C(O)C(=O)c2ccccc2C1=O [lapachol]	–	–	–	–	IC50 [10]: 2 µM
Triton X-100	–	–	–	–	% Hemolysis (Mean ± SD) [9]: 100% and 99.6 ± 2.51%
